Results published in the NIST ThermoML archive (doi:10.1016/j.tca.2010.04.013).

Columns and labels:
[1] = relative permittivity at various frequencies (dimensionless); conditions: 303.15 K; 101.3 kPa; Liquid; Frequency=1 MHz; capacitance measurements at 1 MHz
[2] = relative permittivity at various frequencies (dimensionless); xn = mol fraction of the nth substance listed; conditions: 303.15 K, 101.3 kPa, Liquid, Frequency=1 MHz, capacitance measurements at 1 MHz

CNC=O [N-methylformamide]
Conditions | relative permittivity
[1] | 169.76

NC=O [formamide] + OCCO
[2]
Conditions | relative permittivity
x2 = 0 | 106.14
x2 = 0.048 | 103.75
x2 = 0.099 | 100.44
x2 = 0.151 | 96.49
x2 = 0.206 | 92.28
x2 = 0.263 | 88.7
x2 = 0.322 | 84.61
x2 = 0.384 | 80.3
x2 = 0.449 | 75.79
x2 = 0.517 | 70.99
x2 = 0.588 | 66.04
x2 = 0.662 | 61.55
x2 = 0.74 | 56.35
x2 = 0.823 | 51.05
x2 = 0.909 | 46.12

CN(C)C=O [dimethylformamide]
Conditions | relative permittivity
[1] | 36.55

CNC=O [N-methylformamide] + OCCO
[2]
Conditions | relative permittivity
x2 = 0 | 169.76
x2 = 0.105 | 139.93
x2 = 0.209 | 118.26
x2 = 0.312 | 102.12
x2 = 0.413 | 87.49
x2 = 0.514 | 76.46
x2 = 0.613 | 67.14
x2 = 0.711 | 59.59
x2 = 0.809 | 52.6
x2 = 0.905 | 46.26

CNC=O [N-methylformamide] + CCO
[2]
Conditions | relative permittivity
x2 = 0 | 169.76
x2 = 0.101 | 144.63
x2 = 0.202 | 123.72
x2 = 0.302 | 104.17
x2 = 0.402 | 85.99
x2 = 0.502 | 71.06
x2 = 0.602 | 57.8
x2 = 0.702 | 46.91
x2 = 0.802 | 37.6
x2 = 0.901 | 29.54

CN(C)C=O [dimethylformamide] + OCCO
Conditions | relative permittivity
[2], x2 = 0 | 36.55

CN(C)C=O [dimethylformamide] + CCO
[2]
Conditions | relative permittivity
x2 = 0 | 36.55
x2 = 0.087 | 35.57
x2 = 0.169 | 34.72
x2 = 0.249 | 33.96
x2 = 0.325 | 32.98
x2 = 0.399 | 32.16
x2 = 0.469 | 31.39
x2 = 0.537 | 30.57
x2 = 0.603 | 29.63
x2 = 0.666 | 28.78
x2 = 0.726 | 27.8
x2 = 0.785 | 27.05
x2 = 0.841 | 26.22
x2 = 0.896 | 25.39
x2 = 0.949 | 24.65

NC=O [formamide] + CCO
[2]
Conditions | relative permittivity
x2 = 0 | 106.14
x2 = 0.046 | 100.82
x2 = 0.095 | 95.19
x2 = 0.146 | 89.27
x2 = 0.199 | 82.58
x2 = 0.254 | 76.43
x2 = 0.312 | 70.03
x2 = 0.374 | 64.23
x2 = 0.438 | 57.92
x2 = 0.506 | 51.93
x2 = 0.577 | 46.28
x2 = 0.652 | 41.17
x2 = 0.732 | 36.15
x2 = 0.816 | 31.37
x2 = 0.905 | 27.6

NC=O [formamide]
Conditions | relative permittivity
[1] | 106.14
